Tested on: New Zealand white rabbit eyes
Test: Eye irritation in rabbit eyes (Draize Test)
Format: in vivo
Settings: 50 μl of 1% droperidol; slit lamp biomicroscope
Method: 50 μl of 1% droperidol was used to test for eye irritation in New Zealand white rabbit eyes using the standard procedure of the Draize Test. […] Eyedrops were instilled in the eyes, and the responses of the eyes were examined with a slit lamp biomicroscope.

## O=C(CCCN1CC=C(n2c(=O)[nH]c3ccccc32)CC1)c1ccc(F)cc1 [droperidol, Droperidol]
  Eye irritation: either absent or insignificant
